The source of these data is ChEMBL document CHEMBL2086269, “Identification of new snake venom metalloproteinase inhibitors using compound screening and rational Peptide design” (ACS Med Chem Lett, 2012).

pIC50: −log10 of the molar value. Where a name gives a salt, the structure may show the parent alone. Active and inactive are the calls of the source. The rule behind the calls is not given here. Residues, ends and D or L forms follow the SMILES beside them. *: point of attachment. NHOH = ON*

System in the first assay: not listed separately
Description: Displacement of PAC1 from Zn2+ incubated for 30 mins prior to PAC1 addition measured after 30 mins by spectrophotometry.
Consider `CC(C)C[C@H](NC(=O)[C@@H](N)Cc1ccccc1)C(=O)N[C@@H](CCCNC(=N)N)C(=O)NO` (H-Phe-Leu-Arg-{NHOH}), for which the outcome was Active.

As for `CC(C)C[C@H](NC(=O)[C@@H](N)Cc1ccccc1)C(=O)N[C@@H](Cc1ccccc1)C(=O)NO` (H-Phe-Leu-Phe-{NHOH}), the result was Active.

In a further assay the target is T1, Snake venom metalloproteinase BaP1 (Bothrops asper, UniProt P83512).
T1 sequence (P83512 whole entry): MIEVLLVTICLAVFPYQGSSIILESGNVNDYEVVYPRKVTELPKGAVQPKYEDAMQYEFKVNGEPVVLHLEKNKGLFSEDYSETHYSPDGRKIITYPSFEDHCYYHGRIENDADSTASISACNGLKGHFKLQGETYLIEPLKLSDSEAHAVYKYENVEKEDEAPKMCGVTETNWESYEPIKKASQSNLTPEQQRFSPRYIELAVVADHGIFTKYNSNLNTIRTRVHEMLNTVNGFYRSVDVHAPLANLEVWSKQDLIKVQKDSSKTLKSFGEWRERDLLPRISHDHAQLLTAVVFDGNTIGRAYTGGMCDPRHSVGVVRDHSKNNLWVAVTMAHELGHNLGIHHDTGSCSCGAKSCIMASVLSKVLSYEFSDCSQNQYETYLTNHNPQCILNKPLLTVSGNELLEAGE
Description: Inhibition of snake venom BaP1 using Abz-Ala-Gly-Leu-Ala-Nba as substrate incubated for 30 mins prior to substrate addition by fluorescence spectrophotometry.
For the compound `CC(C)C[C@H](NC(=O)[C@@H](N)Cc1c[nH]c2ccccc12)C(=O)N[C@@H](CCCNC(=N)N)C(=O)NO`, the pIC50 (usually the negative decadic logarithm of the IC50, by convention in mol/L) was 3.66. The same measure, in the same setting: next, `CC(C)C[C@H](NC(=O)[C@@H](N)Cc1ccccc1)C(=O)N[C@@H](CCCNC(=N)N)C(=O)NO` (H-Phe-Leu-Arg-{NHOH}): 5.34; `CC(C)C[C@H](NC(=O)[C@@H](N)Cc1ccccc1)C(=O)N[C@@H](Cc1cnc[nH]1)C(=O)NO` (H-Phe-Leu-His-{NHOH}): 3.97; `CC(C)C[C@H](NC(=O)[C@@H](N)Cc1ccccc1)C(=O)N[C@@H](Cc1ccccc1)C(N)=O` (H-Phe-Leu-Phe-NH2): 3.08. `CC(C)C[C@H](NC(=O)[C@@H](N)Cc1ccccc1)C(=O)N[C@@H](Cc1ccccc1)C(=O)NO` (H-Phe-Leu-Phe-{NHOH}): the pIC50 was 6.30. Still for that read-out and setting: with `CC(C)C[C@H](NC(=O)[C@@H](N)Cc1ccccc1)C(=O)N[C@@H](Cc1ccc(O)cc1)C(N)=O` (H-Phe-Leu-Tyr-NH2) the figure was less than 3.00; with `CC(C)C[C@H](NC(=O)[C@@H](N)Cc1ccccc1)C(=O)N[C@@H](Cc1ccc(O)cc1)C(=O)NO` (H-Phe-Leu-Tyr-{NHOH}), 4.51; with `CC(C)C[C@H](NC(=O)[C@@H](N)Cc1c[nH]c2ccccc12)C(=O)N[C@@H](Cc1cnc[nH]1)C(=O)NO` (H-Trp-Leu-His-{NHOH}), 4.23.

As to `CC(C)C[C@H](NC(=O)[C@@H](N)Cc1c[nH]c2ccccc12)C(=O)N[C@@H](Cc1ccccc1)C(N)=O` (H-Trp-Leu-Phe-NH2), the pIC50 was less than 3.00.

`CC(C)C[C@H](NC(=O)[C@@H](N)Cc1c[nH]c2ccccc12)C(=O)N[C@@H](Cc1ccccc1)C(=O)NO` (H-Trp-Leu-Phe-{NHOH}) gave a pIC50 of 4.47. Still for that read-out and setting: with `CC(C)C[C@H](NC(=O)[C@@H](N)Cc1c[nH]c2ccccc12)C(=O)N[C@@H](Cc1ccc(O)cc1)C(N)=O` (H-Trp-Leu-Tyr-NH2) the figure was 3.40; with `CC(C)C[C@H](NC(=O)[C@@H](N)Cc1c[nH]c2ccccc12)C(=O)N[C@@H](Cc1ccc(O)cc1)C(=O)NO` (H-Trp-Leu-Tyr-{NHOH}), 4.34. In turn, `CNC(=O)[C@H](Cc1ccccc1)NC(=O)[C@H](CC(C)C)[C@H](CSc1cccs1)C(=O)NO` [BATIMASTAT] gave a pIC50 of 5.92.

On to `COc1ccc2c3c([nH]c2c1)C(C)=NCC3` [HARMALINE HYDROCHLORIDE DIHYDRATE], for which the pIC50 was 4.15. The same measure, in the same setting: with `NC(=O)N/N=C/c1ccc([N+](=O)[O-])o1` [NITROFURAZONE] the figure was 4.06; with `COc1cc2c(cc1OC)-c1cc3ccc(OC)c(OC)c3c[n+]1CC2` [PALMATINE CHLORIDE], 4.03.

Compound `Nc1ccc(/N=N/c2ccccc2)c(N)n1` [PHENAZOPYRIDINE HYDROCHLORIDE] gave a pIC50 of 4.27.
